The results in this text go back to publication PMC4577212, “X-Ray Structure and Mutagenesis Studies of the N-Isopropylammelide Isopropylaminohydrolase, AtzC” (PLoS ONE, 2015).

SMILES strings stand for the structures.

The assay deals with T1, AtzC (N-isopropylammelide isopropylaminohydrolase) (Pseudomonas sp. ADP, UniProt O52063).
T1 construct: full length, N-terminal His-tag (pETCC2, from pET14b), expressed in E. coli BL21(DE3); tag cut with thrombin for crystals; homotetramer ~210 kDa; Zn enzyme
T1 sequence (O52063 1-403): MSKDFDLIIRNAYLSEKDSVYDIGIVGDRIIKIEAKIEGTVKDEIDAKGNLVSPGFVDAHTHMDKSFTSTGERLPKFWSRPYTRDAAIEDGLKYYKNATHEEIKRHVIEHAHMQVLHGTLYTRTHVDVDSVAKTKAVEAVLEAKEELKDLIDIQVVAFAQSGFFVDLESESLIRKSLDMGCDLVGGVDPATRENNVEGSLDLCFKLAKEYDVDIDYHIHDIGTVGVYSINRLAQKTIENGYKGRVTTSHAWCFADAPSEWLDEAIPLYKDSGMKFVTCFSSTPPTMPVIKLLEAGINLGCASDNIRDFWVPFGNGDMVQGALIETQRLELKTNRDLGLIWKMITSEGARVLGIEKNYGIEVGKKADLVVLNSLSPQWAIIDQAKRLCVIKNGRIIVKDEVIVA
The assay can be described thus: X-ray crystal structure, […] Å. It is filed as binding. As to conditions: crystals from 2.4 M sodium malonate pH 7; active site; tag cut with thrombin.

On to `O=C(O)CC(=O)O` [malonic acid], for which the “X-ray crystal structure, 1.84 Å” value is “The malonate (a poor inhibitor of AtzC, Figure E in S1 File) adopts a planar conformation”.
